The term melting point denotes the temperature, or range, at which the solid turns liquid. In turn, `N#CCC(=O)N[C@H]1CC[C@H](CCN2CCN(c3cccc4ncccc34)CC2)CC1` [Example 239, 2-Cyano-N-{4-[2-(4-quinolin-5-ylpiperazin-1-yl)ethyl]cyclohexyl}acetamide] returned a melting point of 220 °C. `CS(=O)(=O)Nc1cccc(N2CCN(CC[C@H]3CC[C@H](NC(=O)CC#N)CC3)CC2)c1` [Example 240, 2-Cyano-N-(4-{2-[4-(3-methanesulfonylaminophenyl)piperazin-1-yl]ethyl}cyclohexyl)-acetamide]: the melting point was 194 °C. For `N#CCC(=O)N[C@H]1CC[C@H](CCN2CCN(c3ccc(F)cc3)CC2)CC1` [Example 241, 2-Cyano-N-(4-{2-[4-(4-fluoro-phenyl)piperazin-1-yl]ethyl}cyclohexyl)acetamide], the melting point was found to be 209 °C.

Compound `Cc1ccc(N2CCN(CC[C@H]3CC[C@H](NC(=O)CC#N)CC3)CC2)cc1` [Example 242, 2-Cyano-N-{4-[2-(4-p-tolylpiperazin-1-yl)ethyl]cyclohexyl}acetamide] had a melting point of 237 °C. In turn, `CCOc1ccccc1N1CCN(CC[C@H]2CC[C@H](NC(=O)CC#N)CC2)CC1` [Example 243, 2-Cyano-N-(4-{2-[4-(2-ethoxyphenyl)piperazin-1-yl]ethyl}cyclohexyl)acetamide] displayed a melting point of 138 °C. For `CC(C)(C)c1nc(N2CCN(CC[C@H]3CC[C@H](NC(=O)CCC#N)CC3)CC2)cc(C(F)(F)F)n1` [Example 244] the value was 151 °C; for `N#CCC(=O)N[C@H]1CC[C@H](CCN2CCN(c3ccccc3Oc3ccccc3)CC2)CC1` [Example 245, 2-Cyano-N-(4-{2-[4-(2-phenoxyphenyl)piperazin-1-yl]ethyl}cyclohexyl)acetamide], 169 °C.

For `N#CCC(=O)N[C@H]1CC[C@H](CCN2CCN(c3cccc(Cl)c3C#N)CC2)CC1` [Example 246, N-(4-{2-[4-(3-Chloro-2-cyanophenyl)piperazin-1-yl]ethyl}cyclohexyl)-2-cyanoacetamide], the melting point lay within 232 to 233 °C. In turn, `CCc1ccccc1N1CCN(CC[C@H]2CC[C@H](NC(=O)CC#N)CC2)CC1` [Example 247, 2-Cyano-N-(4-{2-[4-(2-ethylphenyl)piperazin-1-yl]ethyl}cyclohexyl)acetamide] came in with a melting point of 142 to 143 °C. Regarding `Cc1ccc(Cl)cc1N1CCN(CC[C@H]2CC[C@H](NC(=O)CCCC#N)CC2)CC1` [Example 248, N-(4-{2-[4-(5-Chloro-2-methylphenyl)piperazin-1-yl]ethyl}cyclohexyl)-4-cyanobutanamide], the melting point is 152 to 153 °C. The same measure for `Cc1cc(C)cc(N2CCN(CC[C@H]3CC[C@H](NC(=O)CCCC#N)CC3)CC2)c1` [Example 249, 4-Cyano-N-(4-{2-[4-(3,5-dimethylphenyl)piperazin-1-yl]ethyl}cyclohexyl)butanamide]: 169 °C; for `CCc1cccc(N2CCN(CC[C@H]3CC[C@H](NC(=O)CC(F)(F)F)CC3)CC2)c1` [Example 250, N-(4-{2-[4-(3-Ethylphenyl)-piperazin-1-yl]ethyl}cyclohexyl)-3,3,3-trifluoropropanamide]: 154 °C; for `CCc1cccc(N2CCN(CC[C@H]3CC[C@H](NC(=O)CCC#N)CC3)CC2)c1` [Example 251, 3-Cyano-N-(4-{2-[4-(3-ethylphenyl)piperazin-1-yl]ethyl}cyclohexyl)propanamide]: 143 °C. The same measure for `N#CCCCC(=O)N[C@H]1CC[C@H](CCN2CCN(c3csc4cc(C(F)(F)F)ccc34)CC2)CC1` [Example 253, 4-Cyano-N-(4-{2-[4-(6-trifluoromethylbenzo[b]thiophen-3-yl)piperazin-1-yl]ethyl}cyclohexyl)butanamide]: 169 °C; for `N#CCCCC(=O)N[C@H]1CC[C@H](CCN2CCN(c3cc(F)cc(F)c3)CC2)CC1` [Example 254, 4-Cyano-N-(4-{2-[4-(3,5-difluorophenyl)piperazin-1-yl]ethyl}cyclohexyl)butanamide]: 165 °C.

Take `CCc1ccc(N2CCN(CC[C@H]3CC[C@H](NC(=O)CC#N)CC3)CC2)c(CC)c1` [Example 255, 2-Cyano-N-(4-{2-[4-(2,4-diethylphenyl)piperazin-1-yl]ethyl}cyclohexyl)acetamide]: the melting point was found to be 183 °C. For `O=C(CC(F)(F)F)N[C@H]1CC[C@H](CCN2CCN(c3cccc(C(F)(F)F)c3F)CC2)CC1` [Example 256, 3,3,3-Trifluoro-N-(4-{2-[4-(2-fluoro-3-trifluoromethylphenyl)-piperazin-1-yl]ethyl}cyclohexyl)-propanamide] the value was 198 °C.

Turning to `Cc1ccc(Cl)cc1N1CCN(CC[C@H]2CC[C@H](NC(=O)CCC#N)CC2)CC1` [Example 257, N-(4-{2-[4-(5-Chloro-2-methylphenyl)piperazin-1-yl]ethyl}cyclohexyl)-3-cyanopropanamide], the melting point lay in the range of 133 to 134 °C.

In the case of `Cc1c(Cl)cccc1N1CCN(CC[C@H]2CC[C@H](NC(=O)CCCC#N)CC2)CC1` [Example 258, N-(4-{2-[4-(3-Chloro-2-methylphenyl)piperazin-1-yl]ethyl}cyclohexyl)-4-cyanobutanamide], the melting point was 180 to 183 °C. The same measure for `N#CCCCC(=O)N[C@H]1CC[C@H](CCN2CCN(c3cc(F)cc(Cl)c3)CC2)CC1` [Example 259, N-(4-{2-[4-(3-Chloro-5-fluorophenyl)piperazin-1-yl]ethyl}cyclohexyl)-4-cyanobutanamide]: 158 to 159 °C. The same measure for `COCC(=O)N[C@H]1CC[C@H](CCN2CCN(c3cccc(C(F)(F)F)c3F)CC2)CC1` [Example 260, N-(4-{2-[4-(2-Fluoro-3-trifluoromethylphenyl)piperazin-1-yl]ethyl}cyclohexyl)-2-methoxyacetamide]: 142 °C. The same measure for `N#CCCCC(=O)N[C@H]1CC[C@H](CCN2CCN(c3cc(Cl)cc(Cl)c3)CC2)CC1` [Example 261, 4-Cyano-N-(4-{2-[4-(3,5-dichlorophenyl)piperazin-1-yl]ethyl}cyclohexyl)butanamide trans/cis 98/2]: 179 °C; for `N#CCCCC(=O)N[C@H]1CC[C@H](CCN2CCN(c3cccc4cccnc34)CC2)CC1` [Example 262, 4-Cyano-N-{4-[2-(4-quinolin-8-ylpiperazin-1-yl)ethyl]cyclohexyl}butanamide]: 180 °C.

On to `CC(=O)CN1CCC(CCN2CCN(c3ccc4scnc4c3)CC2)CC1` [Example 264, 1-{4-[2-(4-Benzothiazol-5-ylpiperazin-1-yl)ethyl]piperidin-1-yl}propan-2-one], for which the melting point came out at 110 °C. The compound `O=C(CCC(F)(F)F)N[C@H]1CC[C@H](CCN2CCN(c3cccc(C(F)(F)F)c3)CC2)CC1` [Example 265, 4,4,4-Trifluoro-N-(4-{2-[4-(3-trifluoromethylphenyl)piperazin-1-yl]ethyl}cyclohexyl)butanamide] registered a melting point of 152 °C. The same measure for `N#CCCC(=O)N[C@H]1CC[C@H](CCN2CCN(c3ccccc3F)CC2)CC1` [Example 266, 3-Cyano-N-(4-{2-[4-(2-fluorophenyl)piperazin-1-yl]ethyl}cyclohexyl)propanamide]: 164 °C.

The values above are taken from patent US8802678B2, “Carbonylated (aza) cyclohexanes as dopamine D3 receptor ligands” (Bioprojet, priority 2006, dated 2014).
